Source: PMC7731314, “Tropinone-Derived Alkaloids as Potent Anticancer Agents: Synthesis, Tyrosinase Inhibition, Mechanism of Action, DFT Calculation, and Molecular Docking Studies” (International Journal of Molecular Sciences, 2020)
Like-named read-outs stand apart in the source and are kept apart here.

What was measured:
RPMI 8226 cells = format: cell-based, human
Protocol: The RPMI 8226 or A549 cells were seeded in 6-well plates in medium containing 10% FBS without or with compound 3a (2.5, 5, 10, 20, or 40 µM). After 24-h and 48-h treatment, the cell cycle analysis was performed by determination of the DNA contents on the basis of PI staining as described previously. Briefly, the cells were harvested, washed with PBS, and fixed overnight with 80% ethanol at −20 °C. After that, the cells were washed with PBS and stained with PI using PI/RNase Staining Buffer (BD Biosciences, BD Pharmingen™, USA) for 30 min in darkness at RT. Next, the stained cells were analyzed using FACS Calibur. The intensity of PI fluorescence of individual nuclei was determined and at least 10 000 events were measured within an acquisition rate >60 events/s. The FACS data were analyzed using Cell Quest Pro Version 6.0 (BD Biosciences, San Jose, CA, USA). for the Macintosh operating system. The data were analyzed to determine the percentage of cells at the sub-G1 phase (apoptotic cells) and each phase of the cell cycle (G1, S, and G2/M).

A549 cells = assay: Annexin V-FITC/PI cell death by flow cytometry, A549; format: cell-based, human; conditions: for IC50: Homo sapiens, read-out: IC50 for apoptosis
Protocol: The quantitative analysis of compound 3a-induced cell death was performed using an Annexin V-fluorescein isothiocyanate (FITC)/propidium iodide (PI) apoptosis kit (BD Biosciences, BD Pharmingen™, San Jose, CA, USA) as previously described. Briefly, the RPMI 8226 or A549 cells growing on the 6-well plates in the culture medium with 2% FBS were subjected to increasing concentrations of compound 3a (2.5, 5, 10, 20, or 40 μM) for 24 and 48 h. After the treatment, the cells were harvested, centrifuged at 1000 rpm and room temperature (RT) for 5 min, washed twice with PBS, and stained with […] of AnnexinV-FITC and […] of PI. After incubation for 15 min in the dark at room temperature, the cells were immediately analyzed using FACS Calibur. The intensity of fluorescence of AnnexinV-FITC and PI stained cells was determined by acquisition of at least 10,000 events per sample within the rate >60 events/s. The FACS data were analyzed using Cell Quest Pro Version 6.0. for the Macintosh operating system. The data were analyzed to determine the percentage of viable, early apoptotic, late apoptotic, and necrotic cells.

CN1C2CCC1CC(=NNc1nc(-c3ccc(I)cc3)cs1)C2 [Compound 3a, 4-(4-Iodophenyl)-2-(2-(8-methyl-8-azabicyclo[3.2.1]octan-3-ylidene)hydrazinyl)thiazole]
Cell cycle distribution Sub-G1 (RPMI 8226 cells; RPMI 8226, 2.5 µM, 48 h): 21.49±0.94 % of cells | Cell cycle distribution G0/G1 (RPMI 8226 cells; RPMI 8226, 5 µM, 24 h): 38.23±6.83 % of cells | Cell cycle distribution G2 (RPMI 8226 cells; RPMI 8226, 5 µM, 24 h): 21.31±4.02 % of cells | Cell cycle distribution S (RPMI 8226 cells; RPMI 8226, 5 µM, 24 h): 18.68±2.58 % of cells | Cell cycle distribution Sub-G1 (RPMI 8226 cells; RPMI 8226, 5 µM, 24 h): 21.32±6.2 % of cells | Cell cycle distribution G0/G1 (RPMI 8226 cells; RPMI 8226, 5 µM, 48 h): 40.3±3.15 % of cells | Cell cycle distribution G2 (RPMI 8226 cells; RPMI 8226, 5 µM, 48 h): 15.23±5.04 % of cells | Cell cycle distribution S (RPMI 8226 cells; RPMI 8226, 5 µM, 48 h): 19.12±2.51 % of cells | Cell cycle distribution Sub-G1 (RPMI 8226 cells; RPMI 8226, 5 µM, 48 h): 25.53±7.59 % of cells | Cell cycle distribution G0/G1 (RPMI 8226 cells; RPMI 8226, 10 µM, 24 h): 38.08±9.38 % of cells | Cell cycle distribution G2 (RPMI 8226 cells; RPMI 8226, 10 µM, 24 h): 17.45±2.75 % of cells | Cell cycle distribution S (RPMI 8226 cells; RPMI 8226, 10 µM, 24 h): 21.4±3.5 % of cells | Cell cycle distribution Sub-G1 (RPMI 8226 cells; RPMI 8226, 10 µM, 24 h): 23.53±7.04 % of cells | Cell cycle distribution G0/G1 (RPMI 8226 cells; RPMI 8226, 10 µM, 48 h): 38.5±2.77 % of cells | Cell cycle distribution G2 (RPMI 8226 cells; RPMI 8226, 10 µM, 48 h): 18.78±2.32 % of cells | Cell cycle distribution S (RPMI 8226 cells; RPMI 8226, 10 µM, 48 h): 18.61±4.5 % of cells | Cell cycle distribution Sub-G1 (RPMI 8226 cells; RPMI 8226, 10 µM, 48 h): 28.01±5.09 % of cells | Cell cycle distribution G0/G1 (RPMI 8226 cells; RPMI 8226, 20 µM, 24 h): 42.63±4.03 % of cells | Cell cycle distribution G2 (RPMI 8226 cells; RPMI 8226, 20 µM, 24 h): 15.7±5.79 % of cells | Cell cycle distribution S (RPMI 8226 cells; RPMI 8226, 20 µM, 24 h): 19.83±2.92 % of cells | Cell cycle distribution Sub-G1 (RPMI 8226 cells; RPMI 8226, 20 µM, 24 h): 24.09±2.62 % of cells | Cell cycle distribution G0/G1 (RPMI 8226 cells; RPMI 8226, 20 µM, 48 h): 31.66±10.94 % of cells | Cell cycle distribution G2 (RPMI 8226 cells; RPMI 8226, 20 µM, 48 h): 17.47±1.42 % of cells | Cell cycle distribution S (RPMI 8226 cells; RPMI 8226, 20 µM, 48 h): 20.74±2.14 % of cells | Cell cycle distribution Sub-G1 (RPMI 8226 cells; RPMI 8226, 20 µM, 48 h): 29.68±10.49 % of cells | Apoptosis (early + late) (A549 cells; A549, 2.5 µM, 24 hours): 14.30±2.21 % of cells ± SD | Necrosis (A549 cells; A549, 2.5 µM, 24 hours): 4.79±1.14 % of cells ± SD | Apoptosis (early + late) (A549 cells; A549, 2.5 µM, 48 hours): 18.41±3.95 % of cells ± SD | Necrosis (A549 cells; A549, 2.5 µM, 48 hours): 4.11±1.44 % of cells ± SD | Apoptosis (early + late) (A549 cells; A549, 5 µM, 24 hours): 14.82±2.42 % of cells ± SD | Necrosis (A549 cells; A549, 5 µM, 24 hours): 4.40±1.66 % of cells ± SD | Apoptosis (early + late) (A549 cells; A549, 5 µM, 48 hours): 22.48±8.36 % of cells ± SD | Necrosis (A549 cells; A549, 5 µM, 48 hours): 4.93±4.26 % of cells ± SD | Apoptosis (early + late) (A549 cells; A549, 10 µM, 24 hours): 18.18±2.52 % of cells ± SD | Necrosis (A549 cells; A549, 10 µM, 24 hours): 4.87±1.35 % of cells ± SD | Apoptosis (early + late) (A549 cells; A549, 10 µM, 48 hours): 27.17±11.71 % of cells ± SD | Necrosis (A549 cells; A549, 10 µM, 48 hours): 4.09±2.58 % of cells ± SD | Apoptosis (early + late) (A549 cells; A549, 20 µM, 24 hours): 23.43±4.57 % of cells ± SD | Necrosis (A549 cells; A549, 20 µM, 24 hours): 4.56±1.90 % of cells ± SD | Apoptosis (early + late) (A549 cells; A549, 20 µM, 48 hours): 40.20±9.87 % of cells ± SD | Necrosis (A549 cells; A549, 20 µM, 48 hours): 4.87±3.04 % of cells ± SD | Apoptosis (early + late) (A549 cells; A549, 40 µM, 24 hours): 73.96±19.94 % of cells ± SD | Necrosis (A549 cells; A549, 40 µM, 24 hours): 7.89±1.10 % of cells ± SD | Apoptosis (early + late) (A549 cells; A549, 40 µM, 48 hours): 89.43±6.65 % of cells ± SD | Necrosis (A549 cells; A549, 40 µM, 48 hours): 8.81±6.51 % of cells ± SD | Necrosis induction (A549 cells; A549, up to highest concentration 40 µM): did not induce necrosis | IC50 (A549 cells; A549, 24 h): 27.7 µM | IC50 (A549 cells; A549, 48 h): 17.4 µM
